Test results from publication PMC8355704, “Designing Modular Cell-free Systems for Tunable Biotransformation of L-phenylalanine to Aromatic Compounds” (Frontiers in Bioengineering and Biotechnology, 2021).

Tests used:
Format in all cases: biochemical
[1] = target: T1, phenylalanine ammonia lyase 2 (PAL2) (Arabidopsis thaliana, UniProt P45724); assay: GC-MS detection of product cinnamic acid in cell-free expression mixture; conditions: unpurified E. coli CFPS lysate; control without plasmid
T1 construct: codon-optimised gene in pET28a (NdeI/SalI), made by E. coli cell-free protein synthesis, not purified
T1 sequence (P45724 whole entry): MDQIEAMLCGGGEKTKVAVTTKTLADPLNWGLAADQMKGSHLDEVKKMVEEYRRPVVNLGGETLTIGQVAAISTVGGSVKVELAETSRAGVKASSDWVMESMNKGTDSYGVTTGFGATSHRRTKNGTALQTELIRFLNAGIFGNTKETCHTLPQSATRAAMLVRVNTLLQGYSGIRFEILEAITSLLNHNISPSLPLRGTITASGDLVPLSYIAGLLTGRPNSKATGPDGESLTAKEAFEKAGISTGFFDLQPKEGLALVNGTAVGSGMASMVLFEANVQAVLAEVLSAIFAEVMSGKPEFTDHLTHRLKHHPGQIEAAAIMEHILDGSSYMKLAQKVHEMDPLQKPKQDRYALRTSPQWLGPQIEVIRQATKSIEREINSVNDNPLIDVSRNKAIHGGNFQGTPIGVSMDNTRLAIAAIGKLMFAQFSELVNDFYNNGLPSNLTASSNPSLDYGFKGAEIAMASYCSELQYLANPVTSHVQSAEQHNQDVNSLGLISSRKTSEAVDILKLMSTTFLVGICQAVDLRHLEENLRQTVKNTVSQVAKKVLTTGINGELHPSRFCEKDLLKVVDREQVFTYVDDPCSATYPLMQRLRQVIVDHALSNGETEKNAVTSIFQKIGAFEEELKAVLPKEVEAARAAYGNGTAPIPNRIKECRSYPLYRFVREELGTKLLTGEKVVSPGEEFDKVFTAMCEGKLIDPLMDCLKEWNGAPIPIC

[2] = target: T2, phenylacrylic acid decarboxylase (PAD, containing two enzymes Fdc1 and Pad1) (Aspergillus niger, UniProt A2QHE5); assay: GC-MS detection of product styrene in cell-free expression mixture; conditions: unpurified E. coli CFPS lysate; control without plasmid; Fdc1 coexpressed with Pad1
T2 construct: codon-optimised Fdc1 and Pad1 genes in pET28a, coexpressed by E. coli cell-free protein synthesis, not purified; with Flavin prenyltransferase PAD1, mitochondrial

[3] = target: T3, styrene monooxygenase (SMO, consisting of two subunit enzymes StyA and StyB) (Pseudomonas sp., UniProt O50214); assay: GC-MS detection of product styrene oxide in cell-free expression mixture; conditions: unpurified E. coli CFPS lysate; control without plasmid; StyA coexpressed with StyB; NADH from lysate
T3 construct: pET28a-StyA and pET28a-StyB coexpressed by E. coli cell-free protein synthesis, two separate chains, not purified; with Styrene monooxygenase StyB (NADH-flavin oxidoreductase component)
T3 sequence (O50214 1-415): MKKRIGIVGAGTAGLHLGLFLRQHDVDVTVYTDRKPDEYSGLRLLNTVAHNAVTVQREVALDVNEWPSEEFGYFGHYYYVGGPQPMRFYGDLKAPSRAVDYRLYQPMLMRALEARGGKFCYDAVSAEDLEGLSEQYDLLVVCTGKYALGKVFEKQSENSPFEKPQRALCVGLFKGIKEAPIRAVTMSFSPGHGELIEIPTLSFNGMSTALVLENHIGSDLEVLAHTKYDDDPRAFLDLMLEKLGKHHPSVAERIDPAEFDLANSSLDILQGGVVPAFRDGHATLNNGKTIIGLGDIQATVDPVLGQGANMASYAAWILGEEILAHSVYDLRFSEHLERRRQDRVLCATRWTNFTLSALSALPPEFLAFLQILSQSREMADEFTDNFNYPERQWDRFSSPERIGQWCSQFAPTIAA

[4] = target: T4, styrene oxide isomerase (StyC, SOI) (Pseudomonas sp. VLB120, UniProt O50216); assay: GC-MS detection of product phenylacetaldehyde in cell-free expression mixture; conditions: unpurified E. coli CFPS lysate; control without plasmid
T4 construct: gene stdC; codon-optimised gene in pET28a, made by E. coli cell-free protein synthesis, not purified; membrane protein
T4 sequence (O50216 1-169): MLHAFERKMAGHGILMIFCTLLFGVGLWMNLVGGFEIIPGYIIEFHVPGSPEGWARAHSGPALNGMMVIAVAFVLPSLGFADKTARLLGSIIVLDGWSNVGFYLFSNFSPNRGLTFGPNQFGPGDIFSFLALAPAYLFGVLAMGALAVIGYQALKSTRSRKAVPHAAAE

N[C@@H](Cc1ccccc1)C(=O)O [compound 1, L-phenylalanine]
GC-MS detection of product cinnamic acid in cell-free expression mixture [1]: each target compound was detected by GC-MS

O=C(O)/C=C/c1ccccc1 [compound 2, cinnamic acid]
GC-MS detection of product styrene in cell-free expression mixture [2]: the conversion of cinnamic acid to styrene requires two enzymes Fdc1 and Pad1

C=Cc1ccccc1 [compound 3, styrene]
GC-MS detection of product styrene oxide in cell-free expression mixture [3]: two subunit enzymes StyA and StyB to oxidize styrene to styrene oxide

c1ccc(C2CO2)cc1 (stereo not shown) [compound 4, styrene oxide]
GC-MS detection of product phenylacetaldehyde in cell-free expression mixture [4]: all cell-free expressed enzymes were active to convert their substrates to the corresponding products
